What was measured:
[1] = target: Calcium/calmodulin-dependent protein kinase type 1D (Homo sapiens) (UniProt Q8IU85)
[2] = target: Calcium/calmodulin-dependent protein kinase type 1G (Homo sapiens) (UniProt Q96NX5)
[3] = target: Calcium/calmodulin-dependent protein kinase type II subunit alpha (Homo sapiens) (UniProt Q9UQM7)
[4] = target: Calcium/calmodulin-dependent protein kinase type II subunit delta (Homo sapiens) (UniProt Q13557)
[5] = target: Calcium/calmodulin-dependent protein kinase kinase 2 (Homo sapiens, UniProt Q96RR4)
[6] = target: Cyclin-dependent kinase 6 (Homo sapiens) (UniProt Q00534)
[7] = target: Serine/threonine-protein kinase Chk2 (Homo sapiens, UniProt O96017)
[8] = target: Dual specificity protein kinase CLK1 (Homo sapiens) (UniProt P49759)
[9] = target: Dual specificity protein kinase CLK2 (Homo sapiens) (UniProt P49760)
[10] = target: Dual specificity protein kinase CLK3 (Homo sapiens) (UniProt P49761)
[11] = target: Casein kinase I isoform gamma-1 (Homo sapiens) (UniProt Q9HCP0)
[12] = target: Casein kinase I isoform gamma-2 (Homo sapiens) (UniProt P78368)
[13] = target: T1, Myotonin-protein kinase (Homo sapiens) (UniProt Q09013)
T1 sequence (whole entry): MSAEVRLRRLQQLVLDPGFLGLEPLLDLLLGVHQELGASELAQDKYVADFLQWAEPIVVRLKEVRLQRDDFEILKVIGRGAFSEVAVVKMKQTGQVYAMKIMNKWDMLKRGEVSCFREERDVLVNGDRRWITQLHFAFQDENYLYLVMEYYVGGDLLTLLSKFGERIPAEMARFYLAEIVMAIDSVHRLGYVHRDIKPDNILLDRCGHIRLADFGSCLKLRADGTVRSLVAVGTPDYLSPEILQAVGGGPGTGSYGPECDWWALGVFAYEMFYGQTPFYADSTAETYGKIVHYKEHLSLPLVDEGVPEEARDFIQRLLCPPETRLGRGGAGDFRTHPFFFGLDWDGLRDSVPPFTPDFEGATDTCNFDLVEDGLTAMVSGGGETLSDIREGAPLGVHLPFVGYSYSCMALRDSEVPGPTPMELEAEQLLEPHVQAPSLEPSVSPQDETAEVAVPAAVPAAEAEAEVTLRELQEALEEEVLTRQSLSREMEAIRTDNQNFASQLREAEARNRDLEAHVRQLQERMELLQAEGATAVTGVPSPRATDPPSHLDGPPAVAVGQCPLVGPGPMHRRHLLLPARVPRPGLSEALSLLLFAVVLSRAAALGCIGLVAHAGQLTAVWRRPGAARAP

[14] = target: Glycogen synthase kinase-3 beta (Homo sapiens, UniProt P49841)
[15] = target: Tyrosine-protein kinase JAK1 (Homo sapiens) (UniProt P23458)
[16] = target: Dual specificity mitogen-activated protein kinase kinase 2 (Homo sapiens, UniProt P36507)
[17] = target: T2, Serine/threonine-protein kinase Nek2 (Homo sapiens) (UniProt P51955)
T2 sequence (whole entry): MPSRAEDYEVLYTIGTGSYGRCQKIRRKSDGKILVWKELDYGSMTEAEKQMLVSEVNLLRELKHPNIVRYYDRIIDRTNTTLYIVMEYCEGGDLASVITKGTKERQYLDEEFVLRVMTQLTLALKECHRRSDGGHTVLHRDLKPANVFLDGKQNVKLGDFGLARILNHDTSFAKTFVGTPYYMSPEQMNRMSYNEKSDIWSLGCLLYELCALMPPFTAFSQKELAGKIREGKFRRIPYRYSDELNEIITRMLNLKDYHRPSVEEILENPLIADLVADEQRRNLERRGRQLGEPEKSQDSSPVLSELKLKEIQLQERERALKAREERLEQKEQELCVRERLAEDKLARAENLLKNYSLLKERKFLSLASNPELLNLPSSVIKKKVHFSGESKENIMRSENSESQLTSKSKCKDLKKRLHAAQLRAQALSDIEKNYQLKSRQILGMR

[18] = target: Cyclin-dependent kinase 16 (Homo sapiens) (UniProt Q00536)
[19] = target: Serine/threonine-protein kinase pim-1 (Homo sapiens) (UniProt P11309)
[20] = target: Serine/threonine-protein kinase pim-2 (Homo sapiens, UniProt Q9P1W9)
[21] = target: Serine/threonine-protein kinase PLK1 (Homo sapiens) (UniProt P53350)
[22] = target: Ribosomal protein S6 kinase alpha-3 (Homo sapiens) (UniProt P51812)
[23] = target: STE20-like serine/threonine-protein kinase (Homo sapiens) (UniProt Q9H2G2)
[24] = target: Serine/threonine-protein kinase 38 (Homo sapiens) (UniProt Q15208)
[25] = target: Serine/threonine-protein kinase 26 (Homo sapiens) (UniProt Q9P289)
[26] = target: T3, Lymphokine-activated killer T-cell-originated protein kinase (Homo sapiens) (UniProt Q96KB5)
T3 sequence (whole entry): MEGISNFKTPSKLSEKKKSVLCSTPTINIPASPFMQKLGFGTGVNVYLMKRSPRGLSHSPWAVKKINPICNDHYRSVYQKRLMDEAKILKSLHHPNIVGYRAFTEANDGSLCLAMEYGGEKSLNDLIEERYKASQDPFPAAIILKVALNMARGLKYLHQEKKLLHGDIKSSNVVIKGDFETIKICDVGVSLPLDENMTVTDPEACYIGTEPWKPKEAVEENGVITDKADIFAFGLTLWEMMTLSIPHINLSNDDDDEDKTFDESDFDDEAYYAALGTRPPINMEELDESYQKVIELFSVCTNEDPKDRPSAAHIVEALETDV

Sequence of Serine/threonine-protein kinase pim-2 (Q9P1W9 whole entry, looked up): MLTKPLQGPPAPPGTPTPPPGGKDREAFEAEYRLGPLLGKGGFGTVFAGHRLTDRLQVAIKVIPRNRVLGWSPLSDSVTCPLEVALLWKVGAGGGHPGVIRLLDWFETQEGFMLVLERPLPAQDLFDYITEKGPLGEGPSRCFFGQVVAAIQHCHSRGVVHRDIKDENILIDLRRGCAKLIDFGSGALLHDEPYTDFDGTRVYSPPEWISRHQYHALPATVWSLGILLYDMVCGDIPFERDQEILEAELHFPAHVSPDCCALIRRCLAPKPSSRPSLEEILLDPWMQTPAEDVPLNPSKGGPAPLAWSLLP
Sequence of Serine/threonine-protein kinase pim-1 (Homo sapiens) (P11309 whole entry, looked up): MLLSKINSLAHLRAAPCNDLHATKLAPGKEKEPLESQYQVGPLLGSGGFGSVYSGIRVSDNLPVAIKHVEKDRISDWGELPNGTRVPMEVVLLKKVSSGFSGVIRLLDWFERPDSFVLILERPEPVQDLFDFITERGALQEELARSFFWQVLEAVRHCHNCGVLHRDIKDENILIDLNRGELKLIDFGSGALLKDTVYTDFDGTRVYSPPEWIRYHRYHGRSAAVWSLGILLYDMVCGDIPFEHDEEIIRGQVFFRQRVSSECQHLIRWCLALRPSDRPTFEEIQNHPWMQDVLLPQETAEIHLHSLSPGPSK
Sequence of Casein kinase I isoform gamma-2 (Homo sapiens) (P78368 whole entry, looked up, canonical isoform): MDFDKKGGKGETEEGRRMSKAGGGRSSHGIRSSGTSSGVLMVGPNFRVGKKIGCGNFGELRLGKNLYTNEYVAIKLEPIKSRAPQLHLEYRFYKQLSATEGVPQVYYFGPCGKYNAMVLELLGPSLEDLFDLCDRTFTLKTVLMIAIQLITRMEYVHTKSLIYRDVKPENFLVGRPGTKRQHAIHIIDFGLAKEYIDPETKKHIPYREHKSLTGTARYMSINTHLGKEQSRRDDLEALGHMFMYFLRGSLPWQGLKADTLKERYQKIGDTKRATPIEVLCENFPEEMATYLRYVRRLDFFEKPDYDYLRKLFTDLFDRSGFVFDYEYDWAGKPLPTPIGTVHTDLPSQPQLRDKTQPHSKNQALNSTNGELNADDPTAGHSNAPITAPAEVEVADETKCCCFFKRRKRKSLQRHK
Sequence of STE20-like serine/threonine-protein kinase (Homo sapiens) (Q9H2G2 whole entry, looked up): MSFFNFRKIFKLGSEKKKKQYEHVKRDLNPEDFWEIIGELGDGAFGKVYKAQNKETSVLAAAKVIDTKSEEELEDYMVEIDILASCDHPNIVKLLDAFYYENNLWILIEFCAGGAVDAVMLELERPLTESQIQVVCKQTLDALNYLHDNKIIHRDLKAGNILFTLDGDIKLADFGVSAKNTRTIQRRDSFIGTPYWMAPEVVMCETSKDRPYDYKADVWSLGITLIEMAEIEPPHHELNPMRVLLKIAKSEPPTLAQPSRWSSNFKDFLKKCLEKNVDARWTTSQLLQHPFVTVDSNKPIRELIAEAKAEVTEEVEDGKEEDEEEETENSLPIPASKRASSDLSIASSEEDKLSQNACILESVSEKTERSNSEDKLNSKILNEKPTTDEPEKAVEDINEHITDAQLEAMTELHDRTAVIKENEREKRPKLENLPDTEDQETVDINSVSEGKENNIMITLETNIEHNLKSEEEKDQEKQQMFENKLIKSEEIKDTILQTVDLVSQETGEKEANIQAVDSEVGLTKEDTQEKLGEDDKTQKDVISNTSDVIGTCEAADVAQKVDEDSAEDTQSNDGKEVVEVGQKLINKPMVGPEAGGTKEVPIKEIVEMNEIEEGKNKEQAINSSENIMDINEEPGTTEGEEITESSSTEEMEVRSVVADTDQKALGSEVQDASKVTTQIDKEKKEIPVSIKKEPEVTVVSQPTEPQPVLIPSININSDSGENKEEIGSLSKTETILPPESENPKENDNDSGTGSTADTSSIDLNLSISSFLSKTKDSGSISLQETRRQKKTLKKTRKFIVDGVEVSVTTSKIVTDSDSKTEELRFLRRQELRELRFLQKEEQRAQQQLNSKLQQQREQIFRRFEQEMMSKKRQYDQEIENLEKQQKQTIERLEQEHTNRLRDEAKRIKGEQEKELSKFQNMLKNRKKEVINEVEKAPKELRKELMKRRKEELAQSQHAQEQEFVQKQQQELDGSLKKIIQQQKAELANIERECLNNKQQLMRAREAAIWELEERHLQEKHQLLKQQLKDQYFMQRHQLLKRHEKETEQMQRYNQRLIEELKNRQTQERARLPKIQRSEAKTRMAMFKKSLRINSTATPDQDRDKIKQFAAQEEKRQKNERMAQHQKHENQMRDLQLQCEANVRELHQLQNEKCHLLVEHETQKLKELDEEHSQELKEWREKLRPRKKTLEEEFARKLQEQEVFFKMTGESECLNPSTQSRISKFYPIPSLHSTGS
Sequence of Dual specificity protein kinase CLK2 (Homo sapiens) (P49760 whole entry, looked up): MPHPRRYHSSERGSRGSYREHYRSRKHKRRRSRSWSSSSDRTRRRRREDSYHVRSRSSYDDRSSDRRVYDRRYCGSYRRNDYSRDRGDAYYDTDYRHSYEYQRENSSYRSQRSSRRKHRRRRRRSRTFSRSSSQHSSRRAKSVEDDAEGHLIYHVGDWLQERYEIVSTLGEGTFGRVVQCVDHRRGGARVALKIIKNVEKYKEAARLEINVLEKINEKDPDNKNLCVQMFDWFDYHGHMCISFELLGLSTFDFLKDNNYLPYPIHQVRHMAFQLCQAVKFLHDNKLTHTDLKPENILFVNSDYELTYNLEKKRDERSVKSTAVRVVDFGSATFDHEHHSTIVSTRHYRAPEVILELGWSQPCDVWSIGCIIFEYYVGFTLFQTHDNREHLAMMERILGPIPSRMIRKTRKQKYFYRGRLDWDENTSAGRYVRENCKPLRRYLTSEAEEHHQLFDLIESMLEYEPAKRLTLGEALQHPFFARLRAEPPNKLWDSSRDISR
Sequence of Calcium/calmodulin-dependent protein kinase kinase 2 (Q96RR4 2-588 limits assumed): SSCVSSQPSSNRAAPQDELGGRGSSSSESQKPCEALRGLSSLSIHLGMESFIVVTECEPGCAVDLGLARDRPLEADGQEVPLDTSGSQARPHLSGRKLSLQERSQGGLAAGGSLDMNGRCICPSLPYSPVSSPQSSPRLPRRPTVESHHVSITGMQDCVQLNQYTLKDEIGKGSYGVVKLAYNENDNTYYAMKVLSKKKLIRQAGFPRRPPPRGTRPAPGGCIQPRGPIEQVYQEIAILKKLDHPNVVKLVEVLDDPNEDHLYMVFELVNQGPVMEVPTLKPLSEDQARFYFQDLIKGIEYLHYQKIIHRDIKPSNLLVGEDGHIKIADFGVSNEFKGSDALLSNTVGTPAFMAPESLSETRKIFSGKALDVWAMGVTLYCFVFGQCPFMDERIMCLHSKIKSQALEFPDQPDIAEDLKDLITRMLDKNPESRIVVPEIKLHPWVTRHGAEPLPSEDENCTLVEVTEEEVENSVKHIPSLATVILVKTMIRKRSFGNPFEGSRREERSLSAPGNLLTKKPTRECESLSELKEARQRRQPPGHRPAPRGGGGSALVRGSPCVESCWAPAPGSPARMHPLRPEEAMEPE
Sequence of Cyclin-dependent kinase 16 (Homo sapiens) (Q00536 whole entry): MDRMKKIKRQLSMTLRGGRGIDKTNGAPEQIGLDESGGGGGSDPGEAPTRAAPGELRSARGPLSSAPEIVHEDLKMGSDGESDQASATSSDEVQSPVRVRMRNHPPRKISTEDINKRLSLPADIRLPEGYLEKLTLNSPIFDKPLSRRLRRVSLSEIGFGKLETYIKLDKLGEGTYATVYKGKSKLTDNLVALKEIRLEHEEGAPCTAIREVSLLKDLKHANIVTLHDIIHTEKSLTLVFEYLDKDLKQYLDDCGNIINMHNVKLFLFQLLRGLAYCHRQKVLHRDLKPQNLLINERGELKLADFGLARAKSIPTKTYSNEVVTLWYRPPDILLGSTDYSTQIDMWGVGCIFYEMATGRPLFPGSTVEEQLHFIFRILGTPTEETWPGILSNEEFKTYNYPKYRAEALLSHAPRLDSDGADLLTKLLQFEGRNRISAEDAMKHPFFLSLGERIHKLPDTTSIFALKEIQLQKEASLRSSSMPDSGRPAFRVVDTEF
Sequence of Glycogen synthase kinase-3 beta (P49841 whole entry, looked up): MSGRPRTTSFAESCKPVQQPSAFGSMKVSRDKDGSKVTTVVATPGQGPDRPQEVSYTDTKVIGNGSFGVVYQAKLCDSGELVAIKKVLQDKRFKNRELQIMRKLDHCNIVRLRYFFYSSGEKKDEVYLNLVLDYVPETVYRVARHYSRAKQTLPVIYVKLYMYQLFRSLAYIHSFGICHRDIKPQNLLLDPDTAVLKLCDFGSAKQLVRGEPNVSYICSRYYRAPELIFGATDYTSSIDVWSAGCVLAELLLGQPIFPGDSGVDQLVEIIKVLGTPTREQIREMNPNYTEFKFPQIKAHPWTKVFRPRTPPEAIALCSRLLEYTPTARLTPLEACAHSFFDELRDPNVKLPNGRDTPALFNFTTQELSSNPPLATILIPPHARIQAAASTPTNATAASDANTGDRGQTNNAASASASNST
Sequence of Calcium/calmodulin-dependent protein kinase type 1D (Homo sapiens) (Q8IU85 whole entry, looked up): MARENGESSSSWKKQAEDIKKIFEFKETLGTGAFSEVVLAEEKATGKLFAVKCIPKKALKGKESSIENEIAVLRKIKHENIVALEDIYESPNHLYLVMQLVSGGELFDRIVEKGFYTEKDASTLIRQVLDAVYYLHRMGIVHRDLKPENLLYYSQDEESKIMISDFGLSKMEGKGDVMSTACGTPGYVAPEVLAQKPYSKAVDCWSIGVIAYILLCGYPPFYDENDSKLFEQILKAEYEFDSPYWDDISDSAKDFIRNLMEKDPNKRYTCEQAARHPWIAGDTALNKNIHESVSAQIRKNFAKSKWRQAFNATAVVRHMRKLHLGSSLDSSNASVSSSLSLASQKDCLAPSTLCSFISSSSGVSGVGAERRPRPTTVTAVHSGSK
Sequence of Cyclin-dependent kinase 6 (Homo sapiens) (Q00534 whole entry): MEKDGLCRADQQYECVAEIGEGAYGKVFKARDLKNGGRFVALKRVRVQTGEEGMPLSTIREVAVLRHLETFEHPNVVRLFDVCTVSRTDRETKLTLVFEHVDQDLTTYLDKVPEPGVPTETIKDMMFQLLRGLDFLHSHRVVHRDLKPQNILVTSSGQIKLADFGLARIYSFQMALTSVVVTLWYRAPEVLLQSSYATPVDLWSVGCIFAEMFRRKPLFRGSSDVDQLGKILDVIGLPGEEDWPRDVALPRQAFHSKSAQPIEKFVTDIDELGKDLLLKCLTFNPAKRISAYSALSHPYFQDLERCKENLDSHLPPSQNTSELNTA

Compound	ΔTm [1] [°C]	ΔTm [2] [°C]	ΔTm [3] [°C]	ΔTm [4] [°C]	ΔTm [5] [°C]	ΔTm [6] [°C]	ΔTm [7] [°C]	ΔTm [8] [°C]	ΔTm [9] [°C]	ΔTm [10] [°C]	ΔTm [11] [°C]	ΔTm [12] [°C]	ΔTm [13] [°C]	ΔTm [14] [°C]	ΔTm [15] [°C]	ΔTm [16] [°C]	ΔTm [17] [°C]	ΔTm [18] [°C]	ΔTm [19] [°C]	ΔTm [20] [°C]	further results
COc1cccc(-c2cc(=O)c3ccccc3o2)c1N	-0.1	-0.2	-0.5	0.3	-0.4	0.1	-0.5	0.2	0	0	0.1	0.5	-0.2	0.1	1	0.1	-0.2	-0.2	0.9	0.2	ΔTm [21]: 0.3 °C; ΔTm [22]: -0.2 °C; ΔTm [23]: -0.1 °C; ΔTm [24]: 0.2 °C; ΔTm [25]: -0.3 °C; ΔTm [26]: 1.2 °C
COc1cc(C[C@H]2C(=O)OC[C@@H]2Cc2ccc(OC)c(OC)c2)ccc1O [ARCTIGENIN]	0.1	-0.3	0.1	0.2	-0.9	0.4	-0.3	-1	-0.1	0	0	0.1	1.4	-0.2	-0.1	0	1.1	-0.1	-0.3	0	ΔTm [21]: 0.1 °C; ΔTm [22]: -0.1 °C; ΔTm [23]: -0.5 °C; ΔTm [24]: 0.5 °C; ΔTm [25]: 0.2 °C; ΔTm [26]: -0.7 °C
COc1ccc(CNc2nc(N(CCO)CCO)nc3c2ncn3C(C)C)cc1	0.3	0.6	0	-0.3	1.2	-0.1	0.9	2.4	2.4	0.6	1.8	1.6	-0.1	0.8	0.2	0.1	1	-0.3	-1	0.3	ΔTm [21]: 0.9 °C; ΔTm [22]: 1.7 °C; ΔTm [23]: 0.3 °C; ΔTm [24]: 0.4 °C; ΔTm [25]: 1 °C; ΔTm [26]: 0.7 °C
COc1ccc2c(c[n+](C)c3c4cc5c(cc4ccc23)OCO5)c1OC [CHELERYTHRINE CHLORIDE]	-5.3	-1.1	0.6	-0.8	-1.6	-1	-3.9	-4.4	-0.2	-1	0	-0.2	1.7	-1.5	0.3	-0.9	-1.2	-0.2	-4.4	-3.1	ΔTm [21]: 0 °C; ΔTm [22]: -0.3 °C; ΔTm [23]: -2.4 °C; ΔTm [24]: 0.1 °C; ΔTm [25]: -4.2 °C; ΔTm [26]: -0.4 °C
O=C1NC(=O)c2c1c1c3ccccc3[nH]c1n1cncc21 [ISOGRANULATIMIDE]	1	3.4	3.6	1	0.5	2.7	6.6	4.5	4.1	2.3	4.3	3.6	2.2	8.8	7.5	5.3	2.4	3.1	9	8	ΔTm [21]: 9.3 °C; ΔTm [22]: 2.5 °C; ΔTm [23]: 2.1 °C; ΔTm [24]: 2.4 °C; ΔTm [25]: 5.4 °C; ΔTm [26]: 1 °C
NCCNS(=O)(=O)c1cccc2c(Cl)cccc12	0	0	0.7	-0.1	0.3	-0.1	0.2	0.9	0.3	-0.2	0.5	0	-1.1	0.1	0.2	-0.3	0.7	-0.1	2.9	1.7	ΔTm [21]: 0.4 °C; ΔTm [22]: 0.2 °C; ΔTm [23]: 0.1 °C; ΔTm [24]: -0.1 °C; ΔTm [25]: -0.1 °C; ΔTm [26]: -0.2 °C
Cc1c2ccncc2c(C)c2c1[nH]c1ccccc12 [ELLIPTECINE]	1.2	0.3	2.2	-0.3	1.3	0.2	2	6.6	3.3	4.2	0.6	0.2	3.5	5.6	2.3	1	0.5	-0.4	4.8	7.1	ΔTm [21]: 3.9 °C; ΔTm [22]: 1.8 °C; ΔTm [23]: 4.1 °C; ΔTm [24]: 1.1 °C; ΔTm [25]: 4.6 °C; ΔTm [26]: 0.3 °C
COc1cc(/C=C/C(=O)CC(=O)/C=C/c2ccc(O)c(OC)c2)ccc1O [CURCUMIN]	2	1.3	-0.1	0.1	6.1	2.1	5.4	7.9	2.6	3.6	4.5	2.3	1.5	3.4	4.1	2.8	1.1	0.7	2.5	2.9	ΔTm [21]: 2 °C; ΔTm [22]: 3 °C; ΔTm [23]: 3.2 °C; ΔTm [24]: 2.5 °C; ΔTm [25]: 2.9 °C; ΔTm [26]: 0.7 °C
